US7585938B2, “Gamma-secretase inhibitors” (priority 2002, dated 2009)
In brackets after ≈: the same amount, converted by molar mass. Blank lines part the entries; values can stand above or below the molecule they belong to.

Experiments:
γ-secretase [1] = molecular target: T1, γ-secretase (Homo sapiens, UniProt P49768); assay: Amyloid protein determination by ELISA in IMR32 cells with introduced human APP695 gene carrying the Sweden mutation; assay type: cell-based
T1 construct: endogenous in cells; host or cells: IMR32 cells (transfected only with the substrate APP gene)
Protocol: APP gene was efficiently introduced from outside into COS cells, which is a cultured cell line of simian kidney's origin, using Lipofectamine Plus reagent (Invitrogen K.K.) according to its protocol. Briefly, 1 μg of APP gene was dissolved in 100 μl of OPTI-MEM, mixed with 6 μl of Plus reagent and left to stand for 15 minutes at room temperature. In parallel, 4 μl of Lipofectamine dissolved in 100 μl of OPTI-MEM medium was prepared. This was then mixed with the APP gene solution, and left to stand for further 15 minutes. Six-well culture plates were provided in advance in each well of which was placed 800 μl of culture that had been prepared by culturing COS cells at 75% to 80% cell density in a DMEM medium supplemented with 10% fetal bovine serum, and then replacing the medium with OPTI-MEM medium. Two hundred pI of the reaction mixture containing the gene were added to each culture well. Twelve hours after introduction of the gene, the medium was changed from the OPTI-MEM medium containing the introduced gene to a 10% fetal bovine serum-supplemented DMEM medium free of the introduced gene. To this culture, the compound obtained in Example 1 was added. After 36 to 48 hours, culture supernatant was collected, transferred to centrifuging tubes, and centrifuged at 10,000 r.p.m. at room temperature for 5 minutes. The supernatant was used as a sample containing amyloid protein. The shorter and the longer amyloid protein components contained in each sample can be separately determined using a commercially available ELISA kit for amyloid protein determination (KHB3441: Signal Select™ Human ⊖ Amyloid1-42 ELISA Kit, or KHB3481: Signal Select™ Human β Amyloid1-40 ELISA Kit, BioSource International, Inc. CA, USA). Those ELISA kits for amyloid determination included 96-well ELISA plates coated with a primary antibody to these two types of amyloid proteins. Following eliminating non-specific antigen-antibody reactions by allowing a usual non-specific blocking reaction, a sample medium containing the amyloid protein to be measured was reacted. Then, after usual washing, one of secondary antibodies was added. The secondary antibodies consisted of two deferent antibodies that can distinguish between the two types of amyloid proteins, the one is the shorter amyloid protein and the other is the longer amyloid antibody, without no cross reactivity. The difference between the two amyloid proteins is the absence or presence of the two amino acid residues (isoleucine and alanine) at their carboxyl terminus. The antibody that detects the former is considered to recognize valine at the carboxyl terminus and the antibody that detects the latter is thought to recognize the alanine.
The compounds (1′a) and (1′b) obtained above were measured for inhibitory activity by the same method as in Example 3. As the system for evaluation, however, IMR32, a neural system cell line of human origin, was used after introducing to it a human APP695 gene into which the Sweden mutation had been incorporated.

γ-secretase [2] = assay: Amyloid protein determination by ELISA in culture supernatant of COS cells with introduced Sweden-type APP695 gene; assay type: cell-based, simian; conditions: for Inhibition rate (%) Aβ42(43) / Inhibition rate (%) Total Aβ: 100 µM
From the text: (§1) The human APP695 gene used in this example (whose nucleotide sequence in its coding region is shown as SEQ ID NO:6) was what had been screened from a cDNA library prepared from the dead brain of a normal human by a conventional method, and its entire nucleotide sequence was confirmed by a conventional method. Briefly, about 1 g of frozen cerebral tissue was phenol-treated and the supernatant aqueous solution was collected. After repeating this process, mRNA was precipitated by addition of ethanol. After dissolving in 20 mM tris-HCl, pH 8., 0.1 mM EDTA, cDNA was synthesized with reverse transcriptase using oligo-dT primers and the mRNA as a template. After remaining RNA was digested with RNase, using thus obtained single-stranded cDNA as a template, double-stranded cDNA was synthesized with DNA polymerase. The double-stranded cDNA was then blunt-ended with T4 DNA polymerase. Following introduction of methylation into a EcoR1 restriction site using EcoR1 methylase, an EcoR1 linker adapter was ligated using ligase. After removal of unreacted free adapter by gel filtration, ligation to λgt11 vector was effected using DNA ligase, and thus ligated product was incorporated into λ-phage using a packaging kit. E. coli cells in agar plates were infected with the λ-phage thus obtained, and the solution containing thus proliferated phage was used as cDNA library. For APP cDNA cloning, oligonucleotides that were anticipated based on the amyloid protein were radio-labeled using γ^32P-ATP and DNA kinase to provide the labeled nucleotides as probes. 10^6 pfu (plaque forming units) of phage were allowed to form plaques on agar plates, and brought into contact with a nylon membrane. The phage DNAs that stuck to the membrane were denaturated to single-stranded DNAs by alkali treatment of the nylon membrane, and the membrane then was neutralized, to which, after incubation in a solution containing salmon sperm DNAs, the ^32P radio-labeled nucleotide probes were added and allowed to hybridize for 12 hours. At this stage, where aimed APP gene incorporated to the phage and one of the oligonucleotides were mutually complementary in their sequences, they would form a double-stranded DNA. The nylon membrane was then exposed to X-ray film, and plaques on the agar plates corresponding to spots of exposure were identified with phages carrying APP gene (fragment). By repeating this process, a single phage was finally obtained. The nucleotide sequence of the APP gene incorporated into the phage was determined by publicly known Sanger method.
(§2) APP gene was efficiently introduced from outside into COS cells, which is a cultured cell line of simian kidney's origin, using Lipofectamine Plus reagent (Invitrogen K.K.) according to its protocol. Briefly, 1 μg of APP gene was dissolved in 100 μl of OPTI-MEM, mixed with 6 μl of Plus reagent and left to stand for 15 minutes at room temperature. In parallel, 4 μl of Lipofectamine dissolved in 100 μl of OPTI-MEM medium was prepared. This was then mixed with the APP gene solution, and left to stand for further 15 minutes. Six-well culture plates were provided in advance in each well of which was placed 800 μl of culture that had been prepared by culturing COS cells at 75% to 80% cell density in a DMEM medium supplemented with 10% fetal bovine serum, and then replacing the medium with OPTI-MEM medium. Two hundred pI of the reaction mixture containing the gene were added to each culture well. Twelve hours after introduction of the gene, the medium was changed from the OPTI-MEM medium containing the introduced gene to a 10% fetal bovine serum-supplemented DMEM medium free of the introduced gene. To this culture, the compound obtained in Example 1 was added. After 36 to 48 hours, culture supernatant was collected, transferred to centrifuging tubes, and centrifuged at 10,000 r.p.m. at room temperature for 5 minutes. The supernatant was used as a sample containing amyloid protein. […]

[3] = Examination of solubility, visually and by microscopy; assay type: physicochemical
From the text: The compound synthesized in Example 1 was examined for its solubility, visually as well as by microscopy.

γ-secretase [4] = assay: Amyloid protein determination by ELISA in culture supernatant of COS cells with introduced wild-type human APP695 gene; assay type: cell-based, simian; conditions: for Inhibition rate (%) Aβ42(43) / Inhibition rate (%) Total Aβ: 100 µM
From the text: as §1, §2

γ-secretase [5] = assay: Amyloid protein determination by ELISA in culture supernatant of COS cells with introduced London-type (Val717Ile) APP695 gene; assay type: cell-based, simian; conditions: for Inhibition rate (%) Total Aβ: 100 µM
From the text: as §1, §2

γ-secretase [6] = assay: Amyloid protein determination by ELISA in cells with introduced APP artificial fragment C100 instead of APP695; assay type: cell-based, simian; conditions: Inhibitor 100 μM; for Inhibition rate (%) Aβ40 / Inhibition rate (%) Aβ42(43): 100 µM
[7] = Inhibitor 100 μM, Sweden-type APP695, COS cells
[8] = Sweden-type APP695, inhibitor 100 μM (Table 2), listed as Compound
[9] = Sweden-type APP695, inhibitor 100 μM (Table 2), listed as inhibitor
[10] = inhibitor 100 μM (Table 2), listed as Compound
[11] = inhibitor 100 μM (Table 2), listed as inhibitor
[12] = Inhibitor 100 μM, London-type APP695, COS cells
[13] = London-type APP695, inhibitor 100 μM (Table 2)

Aβ40 (γ-secretase [1]; 10 μM): 31 pg/mL | Aβ40 (γ-secretase [1]; 100 μM): 0 pg/mL | inhibition at 10 µM (γ-secretase [1]; IMR-32, Aβ40, 10 μM, read-out: Inhibition rate (%)): 73% | inhibition at 100 µM (γ-secretase [1]; IMR-32, Aβ40, 100 μM, read-out: Inhibition rate (%)): 100%
Molecule: CSCC[C@H](NC(=O)[C@@H](NC(=O)[C@H](CC(C)C)C[C@@H](O)[C@@H](NC(=O)OC(C)(C)C)[C@@H](C)OC(C)(C)C)C(C)C)C(=O)NCc1ccccc1 [Compound 1′a, t-But-OCO-Thr*-Leu-Val-Met-NH-Bzl]

Aβ40 (γ-secretase [1]; 10 μM): 72 pg/mL | Inhibition rate (%) (γ-secretase [1]; 10 μM): 38% | Aβ40 (γ-secretase [1]; 100 μM): 26 pg/mL | Inhibition rate (%) (γ-secretase [1]; 100 μM): 78%
Molecule: t-But-OCO-Thr*-Leu-Val-Met-NH-Bzl [Compound 1′b]

solubility ([3]; DMEM medium containing 10% fetal bovine serum, plasma or biological fluid, concentration 10 ng/ml): > 0.01 µg/mL | solubility ([3]; DMEM medium containing 10% fetal bovine serum, plasma or biological fluid, concentration 1 μg/ml): 0.01 to 1 µg/mL (≈ 0.017 to 1.7 µM) | solubility ([3]; DMEM medium containing 10% fetal bovine serum, plasma or biological fluid, concentration 100 μg/ml): < 100 µg/mL | solubility ([3]; DMSO, organic solvent or mixture, concentration 10 ng/ml): > 0.01 µg/mL | solubility ([3]; DMSO, organic solvent or mixture, concentration 1 μg/ml): > 1 µg/mL | solubility ([3]; DMSO, organic solvent or mixture, concentration 100 μg/ml): > 100 µg/mL | solubility ([3]; phosphate buffer, pH 7, aqueous buffer, Phosphate buffer (pH 7.0), concentration 10 ng/ml): > 0.01 µg/mL | solubility ([3]; phosphate buffer, pH 7, aqueous buffer, Phosphate buffer (pH 7.0), concentration 1 μg/ml): 0.01 to 1 µg/mL (≈ 0.017 to 1.7 µM) | solubility ([3]; phosphate buffer, pH 7, aqueous buffer, Phosphate buffer (pH 7.0), concentration 100 μg/ml): < 100 µg/mL | solubility ([3]; physiological saline, saline or isotonic, concentration 10 ng/ml): > 0.01 µg/mL | solubility ([3]; physiological saline, saline or isotonic, concentration 1 μg/ml): 0.01 to 1 µg/mL (≈ 0.017 to 1.7 µM) | solubility ([3]; physiological saline, saline or isotonic, concentration 100 μg/ml): < 100 µg/mL
Molecule: COC(=O)[C@H](CC(C)C)NC(=O)[C@H](CCSC)NC(=O)[C@@H](C[C@@H](O)[C@H](CC(C)C)NC(=O)OC(C)(C)C)C(C)C [Compound 1, Boc-Leu*-Val-Met-Leu-OMe]
Aβ40 (γ-secretase [2]; [7]): 1726 pg/mL | Aβ42(43) (γ-secretase [2]; [7]): 1311 pg/mL | Ratio of Aβ42(43)/Aβ40 (γ-secretase [2]; [7]): 0.76 | inhibitory activity for Aβ40 (γ-secretase [2]; Sweden double mutation): about 90% | Inhibition rate (%) Aβ40 (γ-secretase [2]; Sweden-type APP695, inhibitor 100 μM (Table 2)): 90% | Inhibition rate (%) Aβ42(43) (γ-secretase [2]; [8]): 48% | Inhibition rate (%) Total Aβ (γ-secretase [2]; [8]): 84% | Inhibition rate (%) Aβ42(43) (γ-secretase [2]; [9]): about 48% | Inhibition rate (%) Total Aβ (γ-secretase [2]; [9]): more than 80% | inhibitory activity for Aβ40 production (γ-secretase [4]): about 98% | Aβ40 (γ-secretase [4]; Inhibitor 100 μM, COS cells): 218 pg/mL | Aβ42(43) (γ-secretase [4]; Inhibitor 100 μM, COS cells): 415 pg/mL | Ratio of Aβ42(43)/Aβ40 (γ-secretase [4]; Inhibitor 100 μM, COS cells): 1.90 | Inhibition rate (%) Aβ42 (γ-secretase [4]; inhibitor 100 μM (Table 2)): 98% | Inhibition rate (%) Aβ42(43) (γ-secretase [4]; [10]): 71% | Inhibition rate (%) Total Aβ (γ-secretase [4]; [10]): 98% | Inhibition rate (%) Aβ42(43) (γ-secretase [4]; [11]): about 71% | Inhibition rate (%) Total Aβ (γ-secretase [4]; [11]): about 98% | Aβ40 (γ-secretase [5]; [12]): 151 pg/mL | Aβ42(43) (γ-secretase [5]; [12]): 855 pg/mL | Ratio of Aβ42(43)/Aβ40 (γ-secretase [5]; [12]): 5.66 | inhibitory activity on amyloid protein production (γ-secretase [5]; London mutation (Val717Ile), compared with wild-type sequence): nearly the same level of inhibitory activity as that noted on the wild-type sequence | Inhibition rate (%) Aβ42 (γ-secretase [5]; [13]): 98% | Inhibition rate (%) Aβ42(43) (γ-secretase [5]; [13]): 70% | Inhibition rate (%) Total Aβ (γ-secretase [5]; London-type APP695, inhibitor 100 μM (Table 2), listed as Compound): 89% | Inhibition rate (%) Total Aβ (γ-secretase [5]; London-type APP695, inhibitor 100 μM (Table 2), listed as inhibitor): more than 80% | Aβ40 (γ-secretase [6]): 100 pg/mL | Aβ42(43) (γ-secretase [6]): 62 pg/mL | Inhibition rate (%) Total Aβ (γ-secretase [6]): 85% | Total Aβ (γ-secretase [6]): 162 pg/mL | Inhibition rate (%) Aβ40 (γ-secretase [6]; listed as Inhibitor): 89% | Inhibition rate (%) Aβ42(43) (γ-secretase [6]; listed as Inhibitor): 51% | Inhibition rate (%) Aβ40 (γ-secretase [6]; listed as inhibitor): about 90% | Inhibition rate (%) Aβ42(43) (γ-secretase [6]; listed as inhibitor): about 50%
